22 compounds from US20230310428A1, “EGFR INHIBITOR AND PREPARATION METHOD AND USE THEREOF” (HONGYUN BIOTECH CO., LTD., priority 2020, published 2023) can be followed below.

Assay in all cases: Growth inhibitory activity of compounds on BaF3 cell lines stably transfected with kinase (MTS, 48 h)
Type in all cases: cell-based

Assay [1] concerns the target T1, various mutants of kinase EGFR (BaF3 cell lines stably transfected with kinase) (Homo sapiens, UniProt P00533, C797S/L858R/T790M).
T1 construct: expressed in transfected cells; host or cells: BaF3
As to conditions: BaF3 cells stably transfected with EGFR L858R/T790M/C797S, read-out: IC50, growth inhibition, L858R/T790M/C797S. The procedure, abridged: (§1)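 Cells in DMEM or RPMI 1640 with 10% FBS were exposed to compound at 8 concentrations (top 10 µM, 1/3 steps, 0.1% DMSO) for 48 h at 37 °C, 5% CO2. MTS/PES was then added for 1-4 h and OD490 read; IC50 was fitted from growth inhibition versus 0.1% DMSO control.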

Assay [2] addresses T2, various mutants of kinase EGFR (BaF3 cell lines stably transfected with kinase) (Homo sapiens, UniProt P00533, L858R/T790M).
T2 construct: expressed in transfected cells; host or cells: BaF3
Particulars: BaF3 cells stably transfected with EGFR L858R/T790M, read-out: IC50, growth inhibition, L858R/T790M. The procedure, abridged:
as §1

Assay [3] addresses T3, various mutants of kinase EGFR (BaF3 cell lines stably transfected with kinase) (Homo sapiens, UniProt P00533, L858R).
T3 construct: expressed in transfected cells; host or cells: BaF3
As to conditions: BaF3 cells stably transfected with EGFR L858R, read-out: IC50, growth inhibition, L858R. The procedure, abridged:
as §1

The target in assay [4] is T4, various mutants of kinase EGFR (BaF3 cell lines stably transfected with kinase) (Homo sapiens, UniProt P00533, T790M, form not given).
T4 construct: other: BaF3 cells stably transfected with EGFR Δ19Del/T790M; MTS, 48 h; other: BaF3 cell line stably transfected with EGFR Δ19Del/T790M; MTS, 48
T4 sequence (P00533 with tags, fused parts or gaps DEL746-750/T790M, form open): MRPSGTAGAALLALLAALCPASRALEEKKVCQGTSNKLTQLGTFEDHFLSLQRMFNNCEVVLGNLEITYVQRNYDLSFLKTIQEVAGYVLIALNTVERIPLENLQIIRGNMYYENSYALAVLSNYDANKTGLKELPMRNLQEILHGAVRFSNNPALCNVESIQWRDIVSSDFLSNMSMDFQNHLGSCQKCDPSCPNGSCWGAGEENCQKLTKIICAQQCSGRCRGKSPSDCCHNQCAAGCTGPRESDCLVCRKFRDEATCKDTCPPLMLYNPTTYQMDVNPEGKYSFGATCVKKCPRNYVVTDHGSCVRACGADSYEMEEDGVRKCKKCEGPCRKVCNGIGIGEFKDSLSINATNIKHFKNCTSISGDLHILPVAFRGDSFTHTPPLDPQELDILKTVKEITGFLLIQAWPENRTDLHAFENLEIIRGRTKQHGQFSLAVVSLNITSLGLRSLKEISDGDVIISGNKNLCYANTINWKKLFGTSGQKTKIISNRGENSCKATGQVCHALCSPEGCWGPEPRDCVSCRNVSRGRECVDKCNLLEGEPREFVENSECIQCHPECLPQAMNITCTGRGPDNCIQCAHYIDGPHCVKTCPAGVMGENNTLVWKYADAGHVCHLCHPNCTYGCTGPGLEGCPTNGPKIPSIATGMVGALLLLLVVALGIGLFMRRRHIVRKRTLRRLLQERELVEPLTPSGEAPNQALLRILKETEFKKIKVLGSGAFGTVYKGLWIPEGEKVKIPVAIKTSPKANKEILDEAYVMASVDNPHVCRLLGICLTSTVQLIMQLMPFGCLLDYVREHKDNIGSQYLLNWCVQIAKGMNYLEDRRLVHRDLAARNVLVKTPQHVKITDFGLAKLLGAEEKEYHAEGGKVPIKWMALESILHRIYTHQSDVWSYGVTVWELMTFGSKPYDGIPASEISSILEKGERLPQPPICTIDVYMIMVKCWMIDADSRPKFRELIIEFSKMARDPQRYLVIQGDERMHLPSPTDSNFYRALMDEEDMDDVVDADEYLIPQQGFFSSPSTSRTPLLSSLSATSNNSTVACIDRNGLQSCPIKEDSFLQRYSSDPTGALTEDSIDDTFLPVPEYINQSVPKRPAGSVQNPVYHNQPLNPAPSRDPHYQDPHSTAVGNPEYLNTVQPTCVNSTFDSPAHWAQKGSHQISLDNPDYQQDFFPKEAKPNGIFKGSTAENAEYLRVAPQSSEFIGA
Particulars: BaF3 cells stably transfected with EGFR Δ19Del/T790M, read-out: IC50, growth inhibition, Δ19Del/T790M. In outline:
as §1

In assay [5] the target is T5, various mutants of kinase EGFR (BaF3 cell lines stably transfected with kinase) (Homo sapiens, UniProt P00533).
T5 construct: other: BaF3 cells stably transfected with EGFR Δ19Del; MTS, 48 h; other: BaF3 cell line stably transfected with EGFR Δ19Del
T5 sequence (P00533 with tags, fused parts or gaps DEL746-750): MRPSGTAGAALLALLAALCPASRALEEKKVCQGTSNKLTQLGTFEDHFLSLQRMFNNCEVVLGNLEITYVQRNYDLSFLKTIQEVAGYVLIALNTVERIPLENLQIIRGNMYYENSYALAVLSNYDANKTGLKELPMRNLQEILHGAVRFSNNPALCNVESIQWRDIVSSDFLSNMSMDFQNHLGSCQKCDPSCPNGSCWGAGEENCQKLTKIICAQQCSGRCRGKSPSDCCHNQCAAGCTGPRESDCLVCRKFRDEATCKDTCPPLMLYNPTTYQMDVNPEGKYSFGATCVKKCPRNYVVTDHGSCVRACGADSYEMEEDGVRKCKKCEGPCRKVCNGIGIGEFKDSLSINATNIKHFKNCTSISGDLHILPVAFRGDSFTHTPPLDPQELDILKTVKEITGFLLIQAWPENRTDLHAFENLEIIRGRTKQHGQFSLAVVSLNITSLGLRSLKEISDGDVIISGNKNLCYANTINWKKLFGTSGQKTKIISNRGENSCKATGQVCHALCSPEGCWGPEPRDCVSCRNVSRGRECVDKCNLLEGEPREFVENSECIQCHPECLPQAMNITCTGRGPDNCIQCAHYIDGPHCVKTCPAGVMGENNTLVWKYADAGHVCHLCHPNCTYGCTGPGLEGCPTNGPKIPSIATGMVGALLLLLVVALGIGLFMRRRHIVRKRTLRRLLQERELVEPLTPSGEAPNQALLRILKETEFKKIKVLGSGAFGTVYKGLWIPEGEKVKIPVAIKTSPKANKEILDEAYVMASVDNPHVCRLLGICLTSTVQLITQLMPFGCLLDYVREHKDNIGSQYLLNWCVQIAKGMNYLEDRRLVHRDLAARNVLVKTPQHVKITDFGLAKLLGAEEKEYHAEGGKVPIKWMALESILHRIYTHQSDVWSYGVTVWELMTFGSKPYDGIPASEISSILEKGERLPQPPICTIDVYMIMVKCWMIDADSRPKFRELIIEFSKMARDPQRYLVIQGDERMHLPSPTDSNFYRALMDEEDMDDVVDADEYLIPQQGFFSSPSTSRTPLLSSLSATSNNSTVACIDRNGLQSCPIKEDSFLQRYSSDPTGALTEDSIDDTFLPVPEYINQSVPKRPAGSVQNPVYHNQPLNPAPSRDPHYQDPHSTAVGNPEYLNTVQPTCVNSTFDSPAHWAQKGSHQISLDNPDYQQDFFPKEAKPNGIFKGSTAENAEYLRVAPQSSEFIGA
As to conditions: BaF3 cells stably transfected with EGFR Δ19Del, read-out: IC50, growth inhibition, Δ19Del. In outline: as §1

Assay [6] has as its target T6, various mutants of kinase EGFR (BaF3 cell lines stably transfected with kinase) (Homo sapiens, UniProt P00533, T790M/C797S, form not given).
T6 construct: other: BaF3 cells stably transfected with EGFR Δ19Del/T790M/C797S; MTS, 48; other: BaF3 cell line stably transfected with EGFR Δ19Del/T790M/C7
Particulars: BaF3 cells stably transfected with EGFR Δ19Del/T790M/C797S, read-out: IC50, growth inhibition, Δ19Del/T790M/C797S. The procedure, abridged: as §1

Each structure is given as a SMILES string.

T2 sequence (P00533 25-1210 T790M/L858R): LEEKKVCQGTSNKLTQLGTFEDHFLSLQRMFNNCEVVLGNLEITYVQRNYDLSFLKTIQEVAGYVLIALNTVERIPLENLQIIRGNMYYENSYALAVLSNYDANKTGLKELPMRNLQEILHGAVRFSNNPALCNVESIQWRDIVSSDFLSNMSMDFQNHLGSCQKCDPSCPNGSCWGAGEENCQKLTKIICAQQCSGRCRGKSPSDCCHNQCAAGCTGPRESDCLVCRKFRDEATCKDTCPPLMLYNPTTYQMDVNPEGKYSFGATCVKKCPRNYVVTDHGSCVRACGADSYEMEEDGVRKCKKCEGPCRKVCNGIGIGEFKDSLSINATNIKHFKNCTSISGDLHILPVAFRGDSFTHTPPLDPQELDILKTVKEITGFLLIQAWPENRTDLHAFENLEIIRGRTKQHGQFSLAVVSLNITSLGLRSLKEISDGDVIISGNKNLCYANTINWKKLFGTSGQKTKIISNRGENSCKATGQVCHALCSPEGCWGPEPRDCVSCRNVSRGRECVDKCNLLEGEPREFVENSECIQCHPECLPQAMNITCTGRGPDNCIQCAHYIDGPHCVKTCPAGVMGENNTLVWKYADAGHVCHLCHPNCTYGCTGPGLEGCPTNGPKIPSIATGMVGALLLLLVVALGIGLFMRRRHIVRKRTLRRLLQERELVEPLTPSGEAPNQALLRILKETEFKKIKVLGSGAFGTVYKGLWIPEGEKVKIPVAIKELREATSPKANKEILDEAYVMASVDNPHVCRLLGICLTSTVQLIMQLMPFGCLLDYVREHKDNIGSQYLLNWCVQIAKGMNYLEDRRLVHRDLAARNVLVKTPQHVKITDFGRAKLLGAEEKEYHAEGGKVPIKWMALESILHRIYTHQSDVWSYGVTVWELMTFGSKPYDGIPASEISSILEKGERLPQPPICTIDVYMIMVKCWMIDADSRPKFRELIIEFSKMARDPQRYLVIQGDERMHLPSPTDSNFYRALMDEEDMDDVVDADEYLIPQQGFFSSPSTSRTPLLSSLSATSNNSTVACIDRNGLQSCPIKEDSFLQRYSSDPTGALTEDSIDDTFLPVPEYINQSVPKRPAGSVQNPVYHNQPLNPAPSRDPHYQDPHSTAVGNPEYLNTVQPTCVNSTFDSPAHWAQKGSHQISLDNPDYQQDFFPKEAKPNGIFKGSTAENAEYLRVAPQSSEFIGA
T6 sequence (P00533 with tags, fused parts or gaps DEL746-750/T790M/C797S, form open): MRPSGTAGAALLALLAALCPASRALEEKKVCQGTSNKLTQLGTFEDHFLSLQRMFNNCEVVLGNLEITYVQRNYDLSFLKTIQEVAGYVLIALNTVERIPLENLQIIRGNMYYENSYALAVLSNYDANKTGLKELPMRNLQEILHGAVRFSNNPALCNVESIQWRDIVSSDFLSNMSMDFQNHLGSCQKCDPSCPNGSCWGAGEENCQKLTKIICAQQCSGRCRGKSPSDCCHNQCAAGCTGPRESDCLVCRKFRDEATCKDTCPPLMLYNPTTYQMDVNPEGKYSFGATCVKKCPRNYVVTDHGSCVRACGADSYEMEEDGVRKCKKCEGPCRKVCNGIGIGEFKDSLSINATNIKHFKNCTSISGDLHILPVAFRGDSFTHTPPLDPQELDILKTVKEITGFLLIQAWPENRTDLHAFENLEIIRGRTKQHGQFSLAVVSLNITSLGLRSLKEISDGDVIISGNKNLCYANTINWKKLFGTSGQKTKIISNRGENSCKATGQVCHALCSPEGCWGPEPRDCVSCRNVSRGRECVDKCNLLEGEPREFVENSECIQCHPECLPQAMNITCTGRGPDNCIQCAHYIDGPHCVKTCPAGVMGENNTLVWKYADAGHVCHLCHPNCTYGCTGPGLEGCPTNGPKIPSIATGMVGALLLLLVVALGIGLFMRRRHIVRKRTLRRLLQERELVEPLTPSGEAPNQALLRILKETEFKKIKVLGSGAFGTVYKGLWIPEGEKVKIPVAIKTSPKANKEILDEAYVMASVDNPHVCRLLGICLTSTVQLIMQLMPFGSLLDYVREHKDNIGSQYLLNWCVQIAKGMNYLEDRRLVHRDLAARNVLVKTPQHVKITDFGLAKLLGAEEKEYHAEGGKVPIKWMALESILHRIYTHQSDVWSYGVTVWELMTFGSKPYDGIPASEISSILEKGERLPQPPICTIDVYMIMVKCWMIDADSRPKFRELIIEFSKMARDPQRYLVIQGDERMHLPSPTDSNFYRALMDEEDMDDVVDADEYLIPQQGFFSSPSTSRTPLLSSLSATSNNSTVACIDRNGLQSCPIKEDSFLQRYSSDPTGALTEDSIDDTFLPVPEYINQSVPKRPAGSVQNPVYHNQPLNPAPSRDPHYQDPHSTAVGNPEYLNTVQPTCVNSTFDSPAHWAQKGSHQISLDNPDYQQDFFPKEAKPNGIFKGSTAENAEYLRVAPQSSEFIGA

For `COc1cc(N2CCC(N3CCN(C)CC3)CC2)ccc1Nc1ncc(Br)c(Nc2ccc3nccnc3c2N(C2CC2)S(C)(=O)=O)n1` [Compound I-223], the IC50 in assay [1] is not above 0.05 µM; in assay [2], not above 0.05 µM; in assay [3] it was 0.05 to 0.5 µM; in assay [4], not above 0.05 µM; in assay [5] it was 0.05 to 0.5 µM; in assay [6], not above 0.05 µM.
With `CCN(c1c(Nc2nc(Nc3ccc(N4CCC(N5CCN(C)CC5)CC4)cc3OC)ncc2Cl)ccc2nccnc12)S(C)(=O)=O` [Compound I-224], the IC50 in assay [1] is not above 0.05 µM; in assay [2] it was not above 0.05 µM; in assay [3], 0.05 to 0.5 µM; in assay [4], 0.05 to 0.5 µM; in assay [5], 0.05 to 0.5 µM; in assay [6], not above 0.05 µM.
Take `CCN(c1c(Nc2nc(Nc3ccc(N4CCC(N5CCN(C)CC5)CC4)nc3OC)ncc2Cl)ccc2nccnc12)S(C)(=O)=O` [Compound I-225]: the IC50 is 0.05 to 0.5 µM in assay [1]; 0.05 to 0.5 µM in assay [2]; 0.05 to 0.5 µM in assay [3]; 0.05 to 0.5 µM in assay [4]; 0.05 to 0.5 µM in assay [5]; not above 0.05 µM in assay [6].
On to `CCN(c1c(Nc2nc(Nc3cc(C)c(N4CCC(N5CCN(C)CC5)CC4)nc3OC)ncc2Cl)ccc2nccnc12)S(C)(=O)=O` [Compound I-226], for which the IC50 lay in the range of 0.5 to 2.5 µM in assay [1]; 0.05 to 0.5 µM in assay [2]; 0.5 to 2.5 µM in assay [3]; 0.05 to 0.5 µM in assay [4]; 0.5 to 2.5 µM in assay [5]; 0.5 to 2.5 µM in assay [6].
Consider `CCc1cc(Nc2ncc(Cl)c(Nc3ccc4nccnc4c3N(CC)S(C)(=O)=O)n2)c(OC)nc1N1CCC(N2CCN(C)CC2)CC1` [Compound I-227], for which the IC50 in assay [1] is not above 0.05 µM; in assay [2] it was not above 0.05 µM; in assay [3] it was not above 0.05 µM; in assay [4], not above 0.05 µM; in assay [5], 0.05 to 0.5 µM; in assay [6], not above 0.05 µM.
`C=Cc1cc(Nc2ncc(Cl)c(Nc3ccc4nccnc4c3N(CC)S(C)(=O)=O)n2)c(OC(F)(F)F)cc1N1CCC(N2CCN(C)CC2)CC1` [Compound I-228]: the IC50 was not above 0.05 µM in assay [1]; not above 0.05 µM in assay [2]; 0.05 to 0.5 µM in assay [3]; not above 0.05 µM in assay [4]; 0.05 to 0.5 µM in assay [5]; not above 0.05 µM in assay [6].
In the case of `CCN(c1c(Nc2nc(Nc3cc(CC4CC4)c(N4CCC(N5CCN(C)CC5)CC4)cc3OC)ncc2Cl)ccc2nccnc12)S(C)(=O)=O` [Compound I-229], the IC50 in assay [1] is not above 0.05 µM; in assay [2], not above 0.05 µM; in assay [3], 0.05 to 0.5 µM; in assay [4], 0.05 to 0.5 µM; in assay [5], 0.05 to 0.5 µM; in assay [6] it was not above 0.05 µM.
Turning to `CCN(c1c(Nc2nc(Nc3cc(C)c(N4CCC(N(C)C)CC4)cc3OC)ncc2Cl)ccc2nccnc12)S(C)(=O)=O` [Compound I-230], the IC50 in assay [1], in assay [2], in assay [3], in assay [4], in assay [5] and in assay [6] was not above 0.05 µM throughout.
In the case of `CCN(c1c(Nc2nc(Nc3cc(C)c(N4CCN(C)CC4)cc3OC)ncc2Cl)ccc2nccnc12)S(C)(=O)=O` [Compound I-231], the IC50 in assay [1] was not above 0.05 µM; in assay [2] it was not above 0.05 µM; in assay [3], not above 0.05 µM; in assay [4] it was 0.05 to 0.5 µM; in assay [5], not above 0.05 µM; in assay [6] it was not above 0.05 µM.
With `CCc1cc(Nc2ncc(Cl)c(Nc3ccc4nccnc4c3N(CC)S(C)(=O)=O)n2)c(OC)cc1N1CCN(C)CC1` [Compound I-232], the IC50 in assay [1], in assay [2], in assay [3], in assay [4], in assay [5] and in assay [6] was not above 0.05 µM each time.
Regarding `CCN(c1c(Nc2nc(Nc3cc(C)c(N4CCC(N(C)C)C4)cc3OC)ncc2Cl)ccc2nccnc12)S(C)(=O)=O` (stereo not drawn) [Compound I-233], the IC50 in assay [1], in assay [2], in assay [3], in assay [4], in assay [5] and in assay [6] was not above 0.05 µM in each case.
`CCc1cc(Nc2ncc(Cl)c(Nc3ccc4nccnc4c3N(C)S(=O)(=O)CC)n2)c(OC)nc1N1CCC(N2CCN(C)CC2)CC1` [Compound I-234]: the IC50 in assay [1] is not above 0.05 µM; in assay [2], not above 0.05 µM; in assay [3], 0.05 to 0.5 µM; in assay [4], not above 0.05 µM; in assay [5], 0.05 to 0.5 µM; in assay [6], not above 0.05 µM.
For the compound `CCS(=O)(=O)N(C)c1c(Nc2nc(Nc3cc(CC4CC4)c(N4CCC(N5CCN(C)CC5)CC4)cc3OC)ncc2Cl)ccc2nccnc12` [Compound I-235], the IC50 in assay [1] was 0.05 to 0.5 µM; in assay [2] it was not above 0.05 µM; in assay [3] it was 0.05 to 0.5 µM; in assay [4] it was not above 0.05 µM; in assay [5], 0.05 to 0.5 µM; in assay [6] it was not above 0.05 µM.
Turning to `CCc1cc(Nc2ncc(Cl)c(Nc3ccc4nccnc4c3N(C)S(=O)(=O)CC)n2)c(OC)cc1N1CCN(C)CC1` [Compound I-236], the IC50 in assay [1], in assay [2], in assay [3], in assay [4], in assay [5] and in assay [6] was not above 0.05 µM each time.
Take `COc1cc(N2CCC(N3CCN(C)CC3)CC2)ccc1Nc1ncc(Cl)c(Nc2ccc3nccnc3c2N(C)S(=O)(=O)C2CC2)n1` [Compound I-237]: the IC50 in assay [1], in assay [2], in assay [3], in assay [4], in assay [5] and in assay [6] was 0.05 to 0.5 µM each time.
Take `COc1cc(N2CCC(N3CCN(C)CC3)CC2)c(CC2CC2)cc1Nc1ncc(Cl)c(Nc2ccc3nccnc3c2N(C)S(=O)(=O)C2CC2)n1` [Compound I-238]: the IC50 in assay [1] was 0.05 to 0.5 µM; in assay [2], 0.05 to 0.5 µM; in assay [3], 0.05 to 0.5 µM; in assay [4], 0.05 to 0.5 µM; in assay [5], 0.05 to 0.5 µM; in assay [6], not above 0.05 µM.
Turning to `COc1nc(N2CCC(N3CCN(C)CC3)CC2)ccc1Nc1ncc(Cl)c(Nc2ccc3nccnc3c2N(C2CC2)S(C)(=O)=O)n1` [Compound I-239], the IC50 in assay [1] was 0.05 to 0.5 µM; in assay [2] it was 0.05 to 0.5 µM; in assay [3], 0.05 to 0.5 µM; in assay [4] it was 0.05 to 0.5 µM; in assay [5], 0.05 to 0.5 µM; in assay [6], not above 0.05 µM.
With `COc1nc(N2CCC(N3CCN(C)CC3)CC2)c(C)cc1Nc1ncc(Cl)c(Nc2ccc3nccnc3c2N(C2CC2)S(C)(=O)=O)n1` [Compound I-240], the IC50 in assay [1], in assay [2], in assay [3], in assay [4], in assay [5] and in assay [6] was 0.5 to 2.5 µM in each case.
Turning to `CCc1cc(Nc2ncc(Cl)c(Nc3ccc4nccnc4c3N(C3CC3)S(C)(=O)=O)n2)c(OC)nc1N1CCC(N2CCN(C)CC2)CC1` [Compound I-241], the IC50 in assay [1] was 0.05 to 0.5 µM; in assay [2], not above 0.05 µM; in assay [3], not above 0.05 µM; in assay [4], not above 0.05 µM; in assay [5] it was not above 0.05 µM; in assay [6], not above 0.05 µM.
For the compound `COc1cc(N2CCC(N3CCN(C)CC3)CC2)c(CC2CC2)cc1Nc1ncc(Cl)c(Nc2ccc3nccnc3c2N(C2CC2)S(C)(=O)=O)n1` [Compound I-242], the IC50 in assay [1] was not above 0.05 µM; in assay [2], 0.05 to 0.5 µM; in assay [3] it was 0.05 to 0.5 µM; in assay [4] it was 0.05 to 0.5 µM; in assay [5] it was 0.05 to 0.5 µM; in assay [6], not above 0.05 µM.
For the compound `COc1cc(N2CCC(N(C)C)CC2)c(C)cc1Nc1ncc(Cl)c(Nc2ccc3nccnc3c2N(C2CC2)S(C)(=O)=O)n1` [Compound I-243], the IC50 in assay [1] was 0.05 to 0.5 µM; in assay [2], not above 0.05 µM; in assay [3], not above 0.05 µM; in assay [4] it was not above 0.05 µM; in assay [5], not above 0.05 µM; in assay [6] it was 0.05 to 0.5 µM.
For the compound `COc1cc(N2CCN(C)CC2)c(C)cc1Nc1ncc(Cl)c(Nc2ccc3nccnc3c2N(C2CC2)S(C)(=O)=O)n1` [Compound I-244], the IC50 in assay [1] was not above 0.05 µM; in assay [2], not above 0.05 µM; in assay [3], not above 0.05 µM; in assay [4] it was 0.05 to 0.5 µM; in assay [5], not above 0.05 µM; in assay [6], not above 0.05 µM.
